Measurements taken from patent US12390405B2, “Personal care compositions” (Colgate-Palmolive Company, priority 2021, dated 2025).

How the values were obtained:
[1] = system: human skin (leftover from abdominal plastic surgery); assay: Wound healing on ex vivo human skin
Procedure: The ability of various molecular weights of hyaluronic acid (HA) are tested to determine their respective properties relative to wound healing and repair.
In this study, human skin (leftover from abdominal plastic surgery) is used. An N=6 skin samples are used for each test condition for statistical comparison. Before treatment with test samples and positive control (Allantoin), a controlled mean wound of about 1 mm length is created on the skin by removing epidermis using a diamond spurr tip. Four microliters of test samples or Allantoin (positive control) are applied on the wound followed by incubation of the tissue for 6 days, and then harvesting of the tissues in order for hematoxylin and eosin staining for morphological analysis. The length of the wounds are measured and values are compared for statistical comparison with untreated Day 6 (self-healing of the skin in absence of any treatment).

[2] = system: darkly pigmented human epidermal melanocyte cell model; assay: Melanocyte viability, Alamar Blue; type: cell-based; conditions: melanocytes, after 5 day of treatment, relative to untreated (100%)
Procedure: In order to evaluate the melanin synthesis inhibition activity of hexylresorcinol, licorice extract and the combination thereof at certain concentrations, In vitro studies are conducted on darkly pigmented human epidermal melanocyte cell model. Darkly pigmented melanocytes cells are placed on 24-well plates. As a positive control, 0.00025% hydroquinone is used. Hexylresorcinol, licorice extract, and hydroquinone solutions are prepared as follows. […] For combination treatment, 2× solutions of hexylresorcinol and licorice extract are mixed. For single treatment, 2× solutions are mixed with the equal volume of media. Test samples are listed in Table 1. • 0.5 ml of each test sample is directly applied to the 24-well plates in triplicates. After 5 day of treatment, melanocyte viability and melanin synthesis are measured. Melanocyte viability is quantified using Alamar Blue solution, which is a nontoxic dye commonly used to assess cell viability.

[3] = system: darkly pigmented human epidermal melanocyte cell model; assay: Melanin synthesis in melanocytes (NaOH solubilized melanin, 490 nm), Table 2; type: cell-based; conditions: for Change from untreated (reduction in melanin synthesis) / Melanin Synthesis: after 5 day of treatment; for Melanin Synthesis: relative to untreated (100%); for inhibits melanin synthesis: 5 day
Procedure: In order to evaluate the melanin synthesis inhibition activity of hexylresorcinol, licorice extract and the combination thereof at certain concentrations, In vitro studies are conducted on darkly pigmented human epidermal melanocyte cell model. Darkly pigmented melanocytes cells are placed on 24-well plates. As a positive control, 0.00025% hydroquinone is used. Hexylresorcinol, licorice extract, and hydroquinone solutions are prepared as follows. […] For combination treatment, 2× solutions of hexylresorcinol and licorice extract are mixed. For single treatment, 2× solutions are mixed with the equal volume of media. Test samples are listed in Table 1. • 0.5 ml of each test sample is directly applied to the 24-well plates in triplicates. After 5 day of treatment, melanocyte viability and melanin synthesis are measured. Melanin synthesis is quantified as follows. Cells are first rinsed with PBS to remove any residual solution and 200 μl NaOH is added to each cell. The plates are shaken for 4 hours to solubilize melanin produced by melanocytes. Solubilized melanin is measured by a spectrometer at 490 nm.

[4] = system: melanocytes; assay: Melanin synthesis inhibition, separate assay, Table 2a; type: cell-based, human; conditions: sample concentrations per Table 2b
Procedure: In a separate assay melanin synthesis is quantified as follows. Cells are first rinsed with PBS to remove any residual solution and 200 μl NaOH is added to each cell. The plates are shaken for 4 hours to solubilize melanin produced by melanocytes. Solubilized melanin is measured by a spectrometer at 490 nm.

[5] = system: MelanoDerm tissues; assay: Melanin synthesis inhibition in MelanoDerm tissues, separate assay, Table 3a; type: cell-based
Procedure: In a separate assay, further comparisons are made to 2% kojic acid solution, which is the industry standard for in vitro tissue testing, and market-based product that is hydroquinone free (“MB HQ Free”) but contains kojic acid and other skin brightening ingredients. In total, 31 prototypes are prepared, and 26 of those are assessed in MelanoDerm™ tissues, as described above.

| Compound | Viability [2] | Change from untreated (reduction in melanin synthesis) [3] | Melanin Synthesis [3] | Melanin Synthesis Inhibition (% inhibition vs. untreated) [4] | other results |
| --- | --- | --- | --- | --- | --- |
| NC(=O)NC1NC(=O)NC1=O (stereo not shown) [Allantoin] | – | – | – | – | Percent (%) Reduction in Wound Width Relative to the Untreated Day 6 ([1]; Day 6): 68%; Mean Wound Width Day 6 ([1]; Day 6 after four microliters applied on wound, N=6, untreated Day 6 874): 280 μm |
| CCCCCCc1ccc(O)cc1O [HR2, hexylresorcinol] | 105% ± 8% | 2.1% | 97.9% ± 2.1% | – | – |
| CCCCCCc1ccc(O)cc1O [HR1, hexylresorcinol] | 95% ± 3% | 6.9% | 93.1% ± 0.7% | – | – |
| Oc1ccc(O)cc1 [Control, hydroquinone, reference compound] | 92% ± 1% | 24.3% | 75.7% ± 0.9% | 20.6% | – |
| O=c1cc(CO)occ1O [Kojic Acid, kojic acid] | – | – | – | – | Melanin Synthesis Inhibition Relative to Untreated (% inhibition) [5]: 73.51% |
| CCCCCCc1ccc(O)cc1O [hexylresorcinol] | – | – | – | – | inhibits melanin synthesis ([3]; 0.0001% hexylresorcinol): 2.1%; inhibits melanin synthesis ([3]; 0.00025% hexylresorcinol): 6.9% |
| CCCCCCc1ccc(O)cc1O [HR 3, hexylresorcinol] | – | – | – | 9.3% | – |
| CCCCCCc1ccc(O)cc1O [HR 4, hexylresorcinol] | – | – | – | 8.8% | – |
| CCCCCCc1ccc(O)cc1O [HR 1, hexylresorcinol] | – | – | – | 10.4% | – |
| CCCCCCc1ccc(O)cc1O [HR 2, hexylresorcinol] | – | – | – | 10.2% | – |
